According to patent US9593108B2, “Compounds and methods for antiviral treatment” (PTC Therapeutics, Inc., priority 2009, dated 2017):
pIC50: −log10 of the molar value.

What was measured:
[1] = test system: HCV replicon RNA (GenBank Accession No. AJ242654); assay: HCV Replicon Assay (replicon RNA reduction and/or Fluc reporter signal); assay type: cell-based, Hepatitis C virus; conditions: Hepatitis C virus, 72 h, replicon-containing cells cultured with test compound for up to 3 days
How it was run: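 IC50 values mostly reflect the drop in replicon RNA, though Fluc reporter signal may also be used. Compound incubated with cells carrying the bicistronic replicon for as long as 3 days; interferon served as positive control.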

Row | Structure (SMILES) | pIC50 [1] | melting point [°C]
1 | COc1ccc2c(C#N)c(-c3ccc(S(=O)(=O)NC(CF)CF)cn3)n(C3CCC3)c2n1 [Cpd 41, 6-(3-cyano-1-cyclobutyl-6-methoxy-1H-pyrrolo[2,3-b]pyridin-2-yl)-N-(1,3-difluoropropan-2-yl)pyridine-3-sulfonamide] | > 6.30 | 194 to 195
2 | COc1ccc2c(C#N)c(-c3ncc(S(=O)(=O)NC(CF)CF)cn3)n(C3CCC3)c2n1 [Cpd 42, 2-(3-cyano-1-cyclobutyl-6-methoxy-1H-pyrrolo[2,3-b]pyridin-2-yl)-N-(1,3-difluoropropan-2-yl)pyrimidine-5-sulfonamide] | > 6.30 | 229 to 230
3 | COc1ccc2c(C#N)c(-c3ccc(S(=O)(=O)NC(C)(C)C)cc3)n(C3CCC3)c2n1 [Cpd 44, N-tert-butyl-4-(3-cyano-1-cyclobutyl-6-methoxy-1H-pyrrolo[2,3-b]pyridin-2-yl)benzenesulfonamide] | > 6.30 | 155 to 157
4 | Cc1ncc2c(C#N)c(-c3ccc(S(=O)(=O)N[C@@H](C)C4CC4)cn3)n(C3CCC3)c2n1 [Cpd 45, 6-(5-cyano-7-cyclobutyl-2-methyl-7H-pyrrolo[2,3-d]pyrimidin-6-yl)-N-[(1S)-1-cyclopropylethyl]pyridine-3-sulfonamide] | > 6.30 | 155 to 157
5 | Cc1ncc2c(C#N)c(-c3ccc(S(=O)(=O)N[C@H](C)C(F)(F)F)cn3)n(C3CCC3)c2n1 [Cpd 46, 6-(5-cyano-7-cyclobutyl-2-methyl-7H-pyrrolo[2,3-d]pyrimidin-6-yl)-N-[(2R)-1,1,1-trifluoropropan-2-yl]pyridine-3-sulfonamide] | > 6.30 | 166 to 168
6 | C[C@@H](NS(=O)(=O)c1ccc(-c2c(C#N)c3cc(F)cnc3n2C2CCC2)nc1)C(F)(F)F [Cpd 47, 6-(3-cyano-1-cyclobutyl-5-fluoro-1H-pyrrolo[2,3-b]pyridin-2-yl)-N-[(2R)-1,1,1-trifluoropropan-2-yl]pyridine-3-sulfonamide] | > 6.30 | 167 to 169
7 | COc1cnc2c(c1)c(C#N)c(-c1ncc(S(=O)(=O)NC(C)C)cn1)n2C1CCC1 [Cpd 49, 2-(3-cyano-1-cyclobutyl-5-methoxy-1H-pyrrolo[2,3-b]pyridin-2-yl)-N-(propan-2-yl)pyrimidine-5-sulfonamide] | > 6.30 | 215 to 217
8 | C[C@@H](NS(=O)(=O)c1ccc(-c2c(C#N)c3cc(Cl)cnc3n2C2CCC2)nc1)C(F)(F)F [Cpd 50, 6-(5-chloro-3-cyano-1-cyclobutyl-1H-pyrrolo[2,3-b]pyridin-2-yl)-N-[(2R)-1,1,1-trifluoropropan-2-yl]pyridine-3-sulfonamide] | > 6.30 | 202 to 203
9 | C[C@H](NS(=O)(=O)c1ccc(-c2c(C#N)c3cc(Cl)cnc3n2C2CCC2)nc1)C(F)(F)F [Cpd 51, 6-(5-chloro-3-cyano-1-cyclobutyl-1H-pyrrolo[2,3-b]pyridin-2-yl)-N-[(2S)-1,1,1-trifluoropropan-2-yl]pyridine-3-sulfonamide] | > 6.30 | 203 to 204
10 | CC(C)(C)NS(=O)(=O)c1ccc(-c2c(C#N)c3cc(Cl)cnc3n2C2CCC2)nc1 [Cpd 52, N-tert-butyl-6-(5-chloro-3-cyano-1-cyclobutyl-1H-pyrrolo[2,3-b]pyridin-2-yl)pyridine-3-sulfonamide] | > 6.30 | 207 to 208
11 | Cc1ncc2c(C#N)c(-c3ccc(S(=O)(=O)NC(C)(C)C(F)(F)F)cc3)n(C3CCC3)c2n1 [Cpd 53, 4-(5-cyano-7-cyclobutyl-2-methyl-7H-pyrrolo[2,3-d]pyrimidin-6-yl)-N-(1,1,1-trifluoro-2-methylpropan-2-yl)benzenesulfonamide] | > 6.30 | 211 to 214
12 | C[C@H](NS(=O)(=O)c1ccc(-c2c(C#N)c3ccc(OC(F)F)nc3n2C2CCC2)nc1)C(F)(F)F [Cpd 54, 6-[3-cyano-1-cyclobutyl-6-(difluoromethoxy)-1H-pyrrolo[2,3-b]pyridin-2-yl]-N-[(2S)-1,1,1-trifluoropropan-2-yl]pyridine-3-sulfonamide] | > 6.30 | 176 to 177
13 | N#Cc1c(-c2ncc(S(=O)(=O)NC(CF)CF)cn2)n(C2CCC2)c2nc(OC(F)F)ccc12 [Cpd 55, 2-[3-cyano-1-cyclobutyl-6-(difluoromethoxy)-1H-pyrrolo[2,3-b]pyridin-2-yl]-N-(1,3-difluoropropan-2-yl)pyrimidine-5-sulfonamide] | > 6.30 | 234 to 236
14 | CC(C)(NS(=O)(=O)c1ccc(-c2c(C#N)c3cc(Cl)cnc3n2C2CCC2)nc1)C(F)(F)F [Cpd 56, 6-(5-chloro-3-cyano-1-cyclobutyl-1H-pyrrolo[2,3-b]pyridin-2-yl)-N-(1,1,1-trifluoro-2-methylpropan-2-yl)pyridine-3-sulfonamide] | > 6.30 | 221 to 222
15 | N#Cc1c(-c2ccc(S(=O)(=O)NC3(C(F)(F)F)CC3)cn2)n(C2CCC2)c2ncc(Cl)cc12 [Cpd 57, 6-(5-chloro-3-cyano-1-cyclobutyl-1H-pyrrolo[2,3-b]pyridin-2-yl)-N-[1-(trifluoromethyl)cyclopropyl]pyridine-3-sulfonamide] | > 6.30 | 254 to 255
16 | CC(C)NS(=O)(=O)c1cnc(-c2c(C#N)c3cc(Cl)cnc3n2C2CCC2)nc1 [Cpd 58, 2-(5-chloro-3-cyano-1-cyclobutyl-1H-pyrrolo[2,3-b]pyridin-2-yl)-N-(propan-2-yl)pyrimidine-5-sulfonamide] | > 6.30 | 224 to 225
17 | C[C@@H](NS(=O)(=O)c1ccc(-c2c(C#N)c3cc(Cl)cnc3n2CC2CC2)nc1)C(F)(F)F [Cpd 59, 6-[5-chloro-3-cyano-1-(cyclopropylmethyl)-1H-pyrrolo[2,3-b]pyridin-2-yl]-N-[(2R)-1,1,1-trifluoropropan-2-yl]pyridine-3-sulfonamide] | 5.70 to 6.30 | 224 to 226
18 | C[C@@H](NS(=O)(=O)c1ccc(-c2c(C#N)c3cc(F)cnc3n2CC2CC2)nc1)C(F)(F)F [Cpd 60, 6-[3-cyano-1-(cyclopropylmethyl)-5-fluoro-1H-pyrrolo[2,3-b]pyridin-2-yl]-N-[(2R)-1,1,1-trifluoropropan-2-yl]pyridine-3-sulfonamide] | > 6.30 | 185 to 187
19 | C[C@H](NS(=O)(=O)c1ccc(-c2c(C#N)c3cc(Cl)cnc3n2C2CCC2)cc1)C(F)(F)F [Cpd 61, 4-(5-chloro-3-cyano-1-cyclobutyl-1H-pyrrolo[2,3-b]pyridin-2-yl)-N-[(2S)-1,1,1-trifluoropropan-2-yl]benzenesulfonamide] | > 6.30 | 220 to 222
20 | C[C@H](NS(=O)(=O)c1ccc(-c2c(C#N)c3cnc(OC(F)F)nc3n2C2CCC2)nc1)C(F)(F)F [Cpd 62, 6-[5-cyano-7-cyclobutyl-2-(difluoromethoxy)-7H-pyrrolo[2,3-d]pyrimidin-6-yl]-N-[(2S)-1,1,1-trifluoropropan-2-yl]pyridine-3-sulfonamide] | > 6.30 | 172 to 174
21 | C[C@H](NS(=O)(=O)c1ccc(-c2c(C#N)c3cc(Cl)cnc3n2CC2CC2)nc1)C(F)(F)F [Cpd 63, 6-[5-chloro-3-cyano-1-(cyclopropylmethyl)-1H-pyrrolo[2,3-b]pyridin-2-yl]-N-[(2S)-1,1,1-trifluoropropan-2-yl]pyridine-3-sulfonamide] | > 6.30 | 226 to 227
22 | C[C@H](NS(=O)(=O)c1ccc(-c2c(C#N)c3cc(F)cnc3n2CC2CC2)nc1)C(F)(F)F [Cpd 64, 6-[3-cyano-1-(cyclopropylmethyl)-5-fluoro-1H-pyrrolo[2,3-b]pyridin-2-yl]-N-[(2S)-1,1,1-trifluoropropan-2-yl]pyridine-3-sulfonamide] | > 6.30 | 186 to 188
23 | COc1cnc2c(c1)c(C#N)c(-c1ccc(S(=O)(=O)NC(CF)CF)cc1)n2C1CCC1 [Cpd 65, 4-(3-cyano-1-cyclobutyl-5-methoxy-1H-pyrrolo[2,3-b]pyridin-2-yl)-N-(1,3-difluoropropan-2-yl)benzenesulfonamide] | > 6.30 | 215 to 218
24 | COc1cnc2c(c1)c(C#N)c(-c1ccc(S(=O)(=O)N[C@@H](C)C(F)(F)F)cn1)n2CC1CC1 [Cpd 66, 6-[3-cyano-1-(cyclopropylmethyl)-5-methoxy-1H-pyrrolo[2,3-b]pyridin-2-yl]-N-[(2S)-1,1,1-trifluoropropan-2-yl]pyridine-3-sulfonamide] | > 6.30 | 136 to 140
25 | C[C@H](NS(=O)(=O)c1ccc(-c2c(C#N)c3cc(Cl)ncc3n2C2CCC2)nc1)C(F)(F)F [Cpd 67, 6-(5-chloro-3-cyano-1-cyclobutyl-1H-pyrrolo[2,3-c]pyridin-2-yl)-N-[(2S)-1,1,1-trifluoropropan-2-yl]pyridine-3-sulfonamide] | > 6.30 | 180 to 183
26 | Cc1cnc2c(c1)c(C#N)c(-c1ccc(S(=O)(=O)N[C@H](C)C(F)(F)F)cn1)n2C1CCC1 [Cpd 68, 6-(3-cyano-1-cyclobutyl-5-methyl-1H-pyrrolo[2,3-b]pyridin-2-yl)-N-[(2R)-1,1,1-trifluoropropan-2-yl]pyridine-3-sulfonamide] | > 6.30 | 176 to 178
27 | Cc1cnc2c(c1)c(C#N)c(-c1ccc(S(=O)(=O)N[C@@H](C)C(F)(F)F)cn1)n2C1CCC1 [Cpd 69, 6-(3-cyano-1-cyclobutyl-5-methyl-1H-pyrrolo[2,3-b]pyridin-2-yl)-N-[(2S)-1,1,1-trifluoropropan-2-yl]pyridine-3-sulfonamide] | > 6.30 | 177 to 179
28 | Cc1cnc2c(c1)c(C#N)c(-c1ncc(S(=O)(=O)N[C@H](C)C(F)(F)F)cn1)n2C1CCC1 [Cpd 70, 2-(3-cyano-1-cyclobutyl-5-methyl-1H-pyrrolo[2,3-b]pyridin-2-yl)-N-[(2R)-1,1,1-trifluoropropan-2-yl]pyrimidine-5-sulfonamide] | > 6.30 | 186 to 188
